Experimental data published in patent US9550754B2, “4,5-dihydropyrazole derivatives, pharmaceutical compositions containing them, and their use in therapy” (ABBVIE DEUTSCHLAND GMBH & CO. KG, priority 2014, dated 2017).

What follows are compounds tested against T1, human GlyT1c transporter (Homo sapiens, UniProt P48067) (assay: Radioligand binding assay using recombinant CHO cell membranes expressing human GlyT1). Conditions: apparent Ki, read-out: Kiapp (Inhibition of GlyT1 radioligand binding).
T1 construct: expressed in transfected cells; host or cells: recombinant CHO cells (membranes); the line hGlyT1c_5_CHO is named only for the uptake assay
T1 sequence (P48067 1-706): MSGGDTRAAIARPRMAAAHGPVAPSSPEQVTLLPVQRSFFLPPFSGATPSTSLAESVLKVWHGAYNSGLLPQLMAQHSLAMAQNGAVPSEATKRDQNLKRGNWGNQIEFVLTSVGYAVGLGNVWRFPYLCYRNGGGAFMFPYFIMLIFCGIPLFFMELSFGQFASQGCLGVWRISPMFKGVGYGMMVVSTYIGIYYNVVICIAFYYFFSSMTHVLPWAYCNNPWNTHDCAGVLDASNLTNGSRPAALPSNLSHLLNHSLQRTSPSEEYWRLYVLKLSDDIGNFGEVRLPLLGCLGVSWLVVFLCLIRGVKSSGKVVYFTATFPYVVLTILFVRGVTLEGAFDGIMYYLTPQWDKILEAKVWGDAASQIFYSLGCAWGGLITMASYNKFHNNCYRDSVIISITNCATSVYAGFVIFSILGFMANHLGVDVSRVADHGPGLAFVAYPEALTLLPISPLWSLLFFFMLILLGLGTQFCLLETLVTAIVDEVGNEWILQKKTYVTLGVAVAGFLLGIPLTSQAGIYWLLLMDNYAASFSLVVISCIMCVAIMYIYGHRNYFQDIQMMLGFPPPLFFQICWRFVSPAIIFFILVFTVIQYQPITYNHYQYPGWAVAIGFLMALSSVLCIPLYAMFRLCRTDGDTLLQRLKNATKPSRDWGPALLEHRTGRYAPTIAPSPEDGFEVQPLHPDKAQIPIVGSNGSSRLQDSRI
Experimental: 2. Radioligand Binding Assays Using Recombinant CHO Cell Membranes Expressing Human GlyT1:
Radioligand binding to human GlyT1c transporter-expressing membranes was carried out as described in Mezler et al., Molecular Pharmacology 74:1705-1715, 2008.

| Compound | Ki [µM] |
| --- | --- |
| Cn1cc(S(=O)(=O)N2CC(c3ccccc3)C(c3cccc(OC(F)(F)F)c3)=N2)nn1 (stereo not shown) [Example 15, 1-methyl-4-({4-phenyl-3-[3-(trifluoromethoxy)phenyl]-4,5-dihydro-1H-pyrazol-1-yl}sulfonyl)-1H-1,2,3-triazole] | ≤ 0.1 |
| Cn1cc(S(=O)(=O)N2CC(c3ccc(F)cc3)C(c3cccc(C(F)(F)F)c3)=N2)cn1 (stereo not shown) [Example 10, 4-({4-(4-fluorophenyl)-3-[3-(trifluoromethyl)phenyl]-4,5-dihydro-1H-pyrazol-1-yl}sulfonyl)-1-methyl-1H-pyrazole] | ≤ 10 |
| Cn1cnc(S(=O)(=O)N2CC(c3ccccc3)C(c3ccc(Cl)cc3)=N2)c1 (single isomer, unassigned) [Example 16b, 3-(4-chlorophenyl)-1-[(1-methyl-1H-imidazol-4-yl)sulfonyl]-4-phenyl-4,5-dihydro-1H-pyrazole] | ≤ 10 |
| Cn1cc(S(=O)(=O)N2CC(c3ccccc3)C(c3ccc(Cl)cc3)=N2)nn1 (stereo not shown) [Example 12, 4-{[3-(4-chlorophenyl)-4-phenyl-4,5-dihydro-1H-pyrazol-1-yl]sulfonyl}-1-methyl-1H-1,2,3-triazole] | ≤ 0.01 |
| Cn1cc(S(=O)(=O)N2CC(c3ccc(Cl)cc3)C(c3ccccc3)=N2)cn1 (stereo not shown) [Example 26, 4-{[4-(4-chlorophenyl)-3-phenyl-4,5-dihydro-1H-pyrazol-1-yl]sulfonyl}-1-methyl-1H-pyrazole] | ≤ 10 |
| Cn1cc(S(=O)(=O)N2CC(c3ccccc3)C(c3ccc(Cl)cc3)=N2)cn1 (stereo not shown) [Example 11, 4-{[3-(4-chlorophenyl)-4-phenyl-4,5-dihydro-1H-pyrazol-1-yl]sulfonyl}-1-methyl-1H-pyrazole] | ≤ 10 |
| Cn1cc(S(=O)(=O)N2CC(c3ccccc3)C(c3cc(C(F)(F)F)ccn3)=N2)cn1 (stereo not shown) [Example 22, 2-{1-[(1-methyl-1H-pyrazol-4-yl)sulfonyl]-4-phenyl-4,5-dihydro-1H-pyrazol-3-yl}-4-(trifluoromethyl)pyridine] | ≤ 10 |
| Cn1cnc(S(=O)(=O)N2CC(c3ccc(F)cc3)C(c3cccc(C(F)(F)F)c3)=N2)c1 (stereo not shown) [Example 8, 4-(4-fluorophenyl)-1-[(1-methyl-1H-imidazol-4-yl)sulfonyl]-3-[3-(trifluoromethyl)phenyl]-4,5-dihydro-1H-pyrazole] | ≤ 0.1 |
| Cn1cnc(S(=O)(=O)N2CC(c3cccc(C#N)c3)C(c3ccccc3)=N2)c1 (stereo not shown) [Example 25, 3-{1-[(1-methyl-1H-imidazol-4-yl)sulfonyl]-3-phenyl-4,5-dihydro-1H-pyrazol-4-yl}benzonitrile] | ≤ 10 |
| Cn1cnc(S(=O)(=O)N2CC(c3ccccc3)C(c3ccccn3)=N2)c1 (stereo not shown) [Example 18, 2-{1-[(1-methyl-1H-imidazol-4-yl)sulfonyl]-4-phenyl-4,5-dihydro-1H-pyrazol-3-yl}pyridine] | ≤ 10 |
| Cn1cc(S(=O)(=O)N2CC(c3ccc(F)cc3)C(c3cccc(C(F)(F)F)c3)=N2)nn1 (stereo not shown) [Example 1, 4-({4-(4-fluorophenyl)-3-[3-(trifluoromethyl)phenyl]-4,5-dihydro-1H-pyrazol-1-yl}sulfonyl)-1-methyl-1H-1,2,3-triazole] | ≤ 10 |
| Cn1cc(S(=O)(=O)N2CC(c3ccc(F)cc3)C(c3cccc(Cl)c3)=N2)cn1 (stereo not shown) [Example 7, 4-{[3-(3-chlorophenyl)-4-(4-fluorophenyl)-4,5-dihydro-1H-pyrazol-1-yl]sulfonyl}-1-methyl-1H-pyrazole] | ≤ 0.01 |
| Cn1cc(S(=O)(=O)N2CC(c3ccc(F)cc3)C(c3ccccc3)=N2)cn1 (stereo not shown) [Example 9, 4-{[4-(4-fluorophenyl)-3-phenyl-4,5-dihydro-1H-pyrazol-1-yl]sulfonyl}-1-methyl-1H-pyrazole] | ≥ 10 |
| CC(C)CC1=NN(S(=O)(=O)c2cn(C)cn2)CC1c1ccccc1 (stereo not shown) [Example 17, 1-[(1-methyl-1H-imidazol-4-yl)sulfonyl]-3-(2-methylpropyl)-4-phenyl-4,5-dihydro-1H-pyrazole] | ≤ 10 |
| Cn1cc(S(=O)(=O)N2CC(c3ccccc3)C(c3ccccn3)=N2)nn1 (stereo not shown) [Example 20, 2-{1-[(1-methyl-1H-1,2,3-triazol-4-yl)sulfonyl]-4-phenyl-4,5-dihydro-1H-pyrazol-3-yl}pyridine] | ≤ 10 |
| Cn1cnc(S(=O)(=O)N2CC(c3ccccc3)C(c3ccc(Cl)cc3)=N2)c1 (single isomer, unassigned) [Example 16a, 3-(4-chlorophenyl)-1-[(1-methyl-1H-imidazol-4-yl)sulfonyl]-4-phenyl-4,5-dihydro-1H-pyrazole] | ≤ 0.01 |

| Compound | Ki [µM] |
| --- | --- |
| Cn1cc(S(=O)(=O)N2CC(c3ccc(F)cc3)C(c3ccccc3)=N2)nn1 (stereo not shown) [Example 3, 4-{[4-(4-fluorophenyl)-3-phenyl-4,5-dihydro-1H-pyrazol-1-yl]sulfonyl}-1-methyl-1H-1,2,3-triazole] | ≤ 0.1 |
| Cn1cc(S(=O)(=O)N2CC(c3ccccc3)C(c3cc(C(F)(F)F)ccn3)=N2)nn1 (stereo not shown) [Example 23, 2-{1-[(1-methyl-1H-1,2,3-triazol-4-yl)sulfonyl]-4-phenyl-4,5-dihydro-1H-pyrazol-3-yl}-4-(trifluoromethyl)pyridine] | ≤ 10 |
| Cn1cc(S(=O)(=O)N2CC(c3cccc(Cl)c3)C(c3ccccc3)=N2)cn1 (stereo not shown) [Example 29, 4-{[4-(3-chlorophenyl)-3-phenyl-4,5-dihydro-1H-pyrazol-1-yl]sulfonyl}-1-methyl-1H-pyrazole] | ≤ 10 |
| Cn1cnc(S(=O)(=O)N2CC(c3ccc(F)cc3)C(c3cccc(Cl)c3)=N2)c1 (stereo not shown) [Example 5, 3-(3-chlorophenyl)-4-(4-fluorophenyl)-1-[(1-methyl-1H-imidazol-4-yl)sulfonyl]-4,5-dihydro-1H-pyrazole] | ≤ 1 |
| Cn1cnc(S(=O)(=O)N2CC(c3ccccc3)C(c3ccc(Cl)cc3)=N2)c1 (stereo not shown) [Example 2, 3-(4-chlorophenyl)-1-[(1-methyl-1H-imidazol-4-yl)sulfonyl]-4-phenyl-4,5-dihydro-1H-pyrazole] | ≤ 0.1 |
| Cn1cnc(S(=O)(=O)N2CC(c3ccccc3)C(c3cc(C(F)(F)F)ccn3)=N2)c1 (stereo not shown) [Example 21, 2-{1-[(1-methyl-1H-imidazol-4-yl)sulfonyl]-4-phenyl-4,5-dihydro-1H-pyrazol-3-yl}-4-(trifluoromethyl)pyridine] | ≤ 10 |
| Cn1cc(S(=O)(=O)N2CC(c3ccccc3)C(c3cccc(OC(F)(F)F)c3)=N2)cn1 (stereo not shown) [Example 14, 1-methyl-4-({4-phenyl-3-[3-(trifluoromethoxy)phenyl]-4,5-dihydro-1H-pyrazol-1-yl}sulfonyl)-1H-pyrazole] | ≤ 10 |
| Cn1cnc(S(=O)(=O)N2CC(c3ccc(Cl)cc3)C(c3ccccc3)=N2)c1 (stereo not shown) [Example 24, 4-(4-chlorophenyl)-1-[(1-methyl-1H-imidazol-4-yl)sulfonyl]-3-phenyl-4,5-dihydro-1H-pyrazole] | ≤ 1 |
| Cn1cnc(S(=O)(=O)N2CC(c3ccccc3)C(c3cccc(OC(F)(F)F)c3)=N2)c1 (stereo not shown) [Example 13, 1-[(1-methyl-1H-imidazol-4-yl)sulfonyl]-4-phenyl-3-[3-(trifluoromethoxy)-phenyl]-4,5-dihydro-1H-pyrazole] | ≤ 0.1 |
| Cn1cc(S(=O)(=O)N2CC(c3ccc(Cl)cc3)C(c3ccccc3)=N2)nn1 (stereo not shown) [Example 27, 4-{[4-(4-chlorophenyl)-3-phenyl-4,5-dihydro-1H-pyrazol-1-yl]sulfonyl}-1-methyl-1H-1,2,3-triazole] | ≤ 1 |
| Cn1cc(S(=O)(=O)N2CC(c3ccccc3)C(c3ccccn3)=N2)cn1 (stereo not shown) [Example 19, 2-{1-[(1-methyl-1H-pyrazol-4-yl)sulfonyl]-4-phenyl-4,5-dihydro-1H-pyrazol-3-yl}pyridine] | ≥ 10 |
| Cn1cnc(S(=O)(=O)N2CC(c3cccc(Cl)c3)C(c3ccccc3)=N2)c1 (stereo not shown) [Example 30, 4-(3-chlorophenyl)-1-[(1-methyl-1H-imidazol-4-yl)sulfonyl]-3-phenyl-4,5-dihydro-1H-pyrazole] | ≤ 0.1 |
| Cn1cnc(S(=O)(=O)N2CC(c3ccc(F)cc3)C(c3ccccc3)=N2)c1 (stereo not shown) [Example 4, 4-(4-fluorophenyl)-1-[(1-methyl-1H-imidazol-4-yl)sulfonyl]-3-phenyl-4,5-dihydro-1H-pyrazole] | ≤ 1 |
| Cn1cc(S(=O)(=O)N2CC(c3cccc(C#N)c3)C(c3ccccc3)=N2)nn1 (stereo not shown) [Example 28, 3-{1-[(1-methyl-1H-1,2,3-triazol-4-yl)sulfonyl]-3-phenyl-4,5-dihydro-1H-pyrazol-4-yl}benzonitrile] | ≤ 1 |
| Cn1cc(S(=O)(=O)N2CC(c3ccc(F)cc3)C(c3cccc(Cl)c3)=N2)nn1 (stereo not shown) [Example 6, 4-{[3-(3-chlorophenyl)-4-(4-fluorophenyl)-4,5-dihydro-1H-pyrazol-1-yl]sulfonyl}-1-methyl-1H-1,2,3-triazole] | ≤ 0.1 |
